One assay deals with GAK (Melanoma). Nature of the assay: Bliss excess, mean over the matrix (fraction); higher = more synergy. In outline:
(§1)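 Cell lines grown in DMEM/F12 or RPMI with 10% FBS were plated in 1536-well plates and held 24 hours at 37°C, 5% CO2 before 72 hours of exposure to two-drug dose matrices, with DMSO typically at 0.2%. CellTiter-Glo 2.0 luminescence gave viability, which was converted to inhibition. Vehicle wells were set to 0 and blank wells to 1. Combination Emax is the second-highest inhibition in the matrix, and Bliss excess is the observed combination effect minus the expected EA + EB − EA·EB, where EA and EB are the single-agent effects.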

Assay [1] concerns NAMALWA (Burkitt's Lymphoma). The description is as above. In outline: as §1
Assay [2] relates to RCC-JW (Kidney Carcinoma). Described as above. In outline:
as §1

Assay [3] relates to IA-LM (Non-Small Cell Lung Carcinoma). Described as above. Summed up: as §1
In the next assay the test system is SK-N-SH (Neuroblastoma). The assay is described as above. In outline: as §1
The test system of assay [4] is ZR-75-30 (Breast Carcinoma). Described as above. In outline:
as §1

For assay [5], the system named is T84 (Colorectal Carcinoma). Nature of the assay: combination Emax (second highest fraction inhibited in the dose matrix, 72 h); higher = more inhibition; extreme values may be limits of the assay. Summed up: as §1
The subject of assay [6] is SNU-423 (Hepatocellular Carcinoma). The assay is described as above. In outline:
as §1

For a further assay, the system named is IST-MEL1 (Melanoma). The assay is described as above. In outline:
as §1

Assay [7] concerns BxPC-3 (Pancreatic Carcinoma). The description is as above. In outline:
as §1

Assay [8] concerns NAMALWA (Burkitt's Lymphoma). Described as above. In outline: as §1
Assay [9] relates to NCI-H3118 (Head and Neck Carcinoma). The assay is described as above. In outline: as §1
Assay [10] concerns LS-1034 (Colorectal Carcinoma). Described as above. In outline: as §1
The test system of another assay is NCI-H226 (Mesothelioma). Described as above. Summed up: as §1
In another assay the test system is KALS-1 (Glioblastoma). Described as above. In outline:
as §1

The test system of assay [11] is SCC-4 (Oral Cavity Carcinoma). The description is as above. In outline:
as §1

Assay [12] concerns MONO-MAC-6 (Acute Myeloid Leukemia). The assay is described as above. Summed up:
as §1

Assay [13] has as its system LCLC-103H (Non-Small Cell Lung Carcinoma). The assay is described as above. In outline:
as §1

Assay [14] concerns ZR-75-30 (Breast Carcinoma). The assay is described as above. Summed up:
as §1

The subject of a further assay is ES6 (Ewing's Sarcoma). Described as above. In outline: as §1
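For Bliss excess, mean over the matrix in this document: after 72 h of two-drug dosing.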

In the case of `C=CCn1c(=O)c2cnc(Nc3ccc(N4CCN(C)CC4)cc3)nc2n1-c1cccc(C(C)(C)O)n1` [AZD1775] + CCc1c2c(nc3ccc(O)cc13)-c1cc3c(c(=O)n1C2)COC(=O)[C@]3(O)CC [SN-38] (first compound max 1 µM, partner max 0.3 µM), the Bliss excess in the assay with GAK (Melanoma) is -0.0432; in assay [1] it was -0.0172; in assay [2], -0.0187; in assay [3] it was -0.0699; with SK-N-SH (Neuroblastoma), -0.019; in [4], -0.0938. The “combination Emax” value turned out to be 0.867 in assay [5]; 0.598 in [6]; 0.825 with IST-MEL1 (Melanoma); 0.562 in assay [7]; 1 in [8]; 0.9 in assay [9]. Moreover, the “combination Emax” value in assay [10] turned out to be 0.894; in the assay on NCI-H226 (Mesothelioma) it was 0.366; in the assay on KALS-1 (Glioblastoma) it was 0.965; in [11] it was 0.902; in assay [12], 1; in assay [13], 0.709. For the same compound, the “combination Emax” value in [14] is 0.137; in the assay on ES6 (Ewing's Sarcoma), 0.607.
Turning to `N#Cc1cnc(Nc2cc(NC[C@H]3CNCCO3)c(C(F)(F)F)cn2)cn1` [SRA737] + C=CCn1c(=O)c2cnc(Nc3ccc(N4CCN(C)CC4)cc3)nc2n1-c1cccc(C(C)(C)O)n1 [AZD1775] (first compound max 10 µM, partner max 1 µM), the Bliss excess with GAK (Melanoma) was 0.0525; in assay [1] it was 0.0724; in assay [2], -0.002; in [3], 0.0224; in the assay with SK-N-SH (Neuroblastoma), 0.0281; in assay [4], -0.0093. The “combination Emax” value in assay [5] was 0.853; in [6] it was 0.648; with IST-MEL1 (Melanoma), 0.655; in assay [7] it was 0.613; in assay [8], 0.988; in [9] it was 0.876. Besides, the “combination Emax” value in assay [10] stood at 0.809; with NCI-H226 (Mesothelioma) it was 0.226; in the assay with KALS-1 (Glioblastoma) it was 0.927; in [11], 0.64; in assay [12] it was 1; in assay [13] it was 0.711. The entries for the “combination Emax” value (in assay [14]; in the assay with ES6 (Ewing's Sarcoma)) were 0.266 and 0.349, respectively.
Consider `CS(=O)(=O)CCNCc1ccc(-c2ccc3ncnc(Nc4ccc(OCc5cccc(F)c5)c(Cl)c4)c3c2)o1` [Lapatinib] + NC1(c2ccc(-c3nc4ccn5c(=O)[nH]nc5c4cc3-c3ccccc3)cc2)CCC1 [MK-2206] (first compound max 10 µM, 7x7, partner max 10 µM), for which the Bliss excess was 0.0347 in the assay with GAK (Melanoma); 0.0388 in assay [1]; -0.0285 in assay [2]; -0.0179 in assay [3]; -0.0194 with SK-N-SH (Neuroblastoma); -0.0604 in [4]. Besides, the “combination Emax” value in assay [5] is 0.832; in assay [6] it was 0.912; in the assay with IST-MEL1 (Melanoma) it was 0.886; in assay [7], 0.614; in assay [8] it was 0.909; in assay [9], 0.783. Besides, the “combination Emax” value in assay [10] was found to be 0.919; in the assay on NCI-H226 (Mesothelioma), 0.164; in the assay on KALS-1 (Glioblastoma), 0.718; in assay [11], 0.719; in assay [12] it was 0.671; in [13], 0.538. Also, the figures for the “combination Emax” value (in assay [14]; with ES6 (Ewing's Sarcoma)) were 0.912 and 0.879, respectively.
With `C=CCn1c(=O)c2cnc(Nc3ccc(N4CCN(C)CC4)cc3)nc2n1-c1cccc(C(C)(C)O)n1` [AZD1775] + Nc1ccn([C@@H]2O[C@H](CO)[C@@H](O)C2(F)F)c(=O)n1 [Gemcitabine] (first compound max 1 µM, partner max 0.3 µM), the Bliss excess with GAK (Melanoma) is -0.0443; in assay [1], 0.0247; in assay [2], -0.0163; in assay [3], -0.0454; in the assay on SK-N-SH (Neuroblastoma), -0.0051; in [4] it was -0.0561. Besides, the “combination Emax” value in [5] turned out to be 0.85; in assay [6] it was 0.655; in the assay with IST-MEL1 (Melanoma) it was 0.662; in assay [7], 0.554; in assay [8] it was 1; in [9], 0.872. The “combination Emax” value came to 0.482 with NCI-H226 (Mesothelioma); 0.929 in the assay with KALS-1 (Glioblastoma); 0.688 in [11]; 1 in assay [12]; 0.753 in [13]; 0.24 in assay [14]. The “combination Emax” value in the assay with ES6 (Ewing's Sarcoma) amounted to 0.556.
As to `N#Cc1cnc(Nc2cc(NC[C@H]3CNCCO3)c(C(F)(F)F)cn2)cn1` [SRA737] + CCc1c2c(nc3ccc(O)cc13)-c1cc3c(c(=O)n1C2)COC(=O)[C@]3(O)CC [SN-38] (first compound max 10 µM, 7x7, partner max 0.3 µM), the Bliss excess in assay [1] is -0.0123; in assay [2], -0.0857; in [3] it was -0.0646; in the assay on SK-N-SH (Neuroblastoma) it was -0.0471; in assay [4], -0.0375. Moreover, the “combination Emax” value in [5] turned out to be 0.815; in [6] it was 0.648; in the assay on IST-MEL1 (Melanoma) it was 0.828; in assay [7], 0.671; in [8], 0.994; in assay [9], 0.763. Besides, the “combination Emax” value in assay [10] came to 0.873; in the assay with NCI-H226 (Mesothelioma), 0.248; in the assay with KALS-1 (Glioblastoma), 0.928; in assay [11], 0.893; in [12], 1; in [13], 0.817. For the same compound, the “combination Emax” value came out at 0.124 in [14] and 0.59 in the assay with ES6 (Ewing's Sarcoma).
In the case of `C[C@@H]1COCCN1c1cc(C2([S@](C)(=N)=O)CC2)nc(-c2ccnc3[nH]ccc23)n1` [AZD6738] + C1CC(C1)(C(=O)[O-])C(=O)[O-].N.N.[Pt+2] [Carboplatin] (first compound max 10 µM, 7x7, partner max 10 µM), the Bliss excess in the assay with GAK (Melanoma) is -0.0442; in assay [1], -0.0293; in assay [2], 0.0051; in [3], -0.047; in the assay with SK-N-SH (Neuroblastoma), -0.028; in assay [4] it was -0.0119. The “combination Emax” value in [5] amounted to 0.731; in assay [6] it was 0.39; in the assay on IST-MEL1 (Melanoma), 0.679; in assay [7], 0.349; in [8], 0.896; in assay [9], 0.61. The “combination Emax” value in assay [10] came out at 0.677; in the assay with NCI-H226 (Mesothelioma), 0.236; in the assay with KALS-1 (Glioblastoma) it was 0.802; in assay [11], 0.552; in assay [12], 0.858; in assay [13] it was 0.385. Further, in assay [14], the “combination Emax” value is 0.262.
For the compound `CN(CCO)CC[C@H](CSc1ccccc1)Nc1ccc(S(=O)(=O)NC(=O)c2ccc(N3CCC([C@@H](O)c4ccccc4-c4ccc(Cl)cc4)CC3)cc2)cc1S(=O)(=O)C(F)(F)F` [AZD4320] + Nc1ccn([C@@H]2O[C@H](CO)[C@@H](O)C2(F)F)c(=O)n1 [Gemcitabine] (first compound max 1 µM, 7x7, partner max 0.3 µM), the Bliss excess is 0.0955 in the assay with GAK (Melanoma); -0.0025 in assay [2]; 0.0296 in [3]; 0.0106 in the assay on SK-N-SH (Neuroblastoma); -0.0052 in assay [4]. Also, the “combination Emax” value in assay [5] amounted to 0.508; in assay [6] it was 0.605; in assay [7], 0.577; in [8] it was 0.99; in [9] it was 0.752; in assay [10] it was 0.592. The “combination Emax” value with NCI-H226 (Mesothelioma) was found to be 0.555; in the assay on KALS-1 (Glioblastoma), 0.595; in assay [11], 0.743; in assay [12], 1; in assay [13] it was 0.681; in [14] it was 0.216. The “combination Emax” value in the assay on ES6 (Ewing's Sarcoma) was 0.824.

The record behind these values is the supplement of paper PMC11061612.
